Measured values: patent US12077503B2, “Substituted cyclic amides and their use as herbicides” (FMC CORPORATION, priority 2015, dated 2024)

Experiments:
Type in all cases: in vivo
[1] = test system: Kochia (Kochia scoparia); test: Test A preemergence; conditions: Bassia scoparia, pre-emergence, 240 h
Method in brief: (§1)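 Seeded soil received test chemicals as a preemergence directed spray, and seedlings at one to two leaves, 2–10 cm tall, received them postemergence, in a non-phytotoxic, surfactant-containing solvent mixture. Pots were held in a greenhouse for approximately 10 d, then rated for injury from 0, no effect, to 100, complete control.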

[2] = test system: barnyardgrass (Echinochloa crus-galli); test: Test A preemergence; conditions: Echinochloa crus-galli, pre-emergence, 240 h
Method in brief: as §1

[3] = test system: giant foxtail (Setaria faberii); test: Test A preemergence; conditions: Setaria faberi, pre-emergence, 240 h
Method in brief: as §1

[4] = test system: pigweed (Amaranthus retroflexus); test: Test A preemergence; conditions: Amaranthus retroflexus, pre-emergence, 240 h
[5] = test system: ragweed (common ragweed, Ambrosia elatior); test: Test A preemergence; conditions: Ambrosia artemisiifolia, pre-emergence, 240 h
Method in brief: as §1

[6] = test system: ryegrass, Italian (Italian ryegrass, Lolium multiflorum); test: Test A preemergence; conditions: Lolium multiflorum, pre-emergence, 240 h, Preemergence, 125 g ai/ha; 0 to 100 scale (0 no effect, 100 complete control); read-out: Plant response rating, Ryegrass, Italian
Method in brief: as §1

[7] = test system: Galium (catchweed bedstraw, Galium aparine); test: Test A postemergence; conditions: Galium, post-emergence, 240 h, Postemergence
Method in brief: as §1

[8] = test system: Kochia (Kochia scoparia); test: Test A postemergence; conditions: Bassia scoparia, post-emergence, 240 h, Postemergence
Method in brief: as §1

[9] = test system: blackgrass (Alopecurus myosuroides); test: Test A postemergence; conditions: Alopecurus myosuroides, post-emergence, 240 h, Postemergence
Method in brief: as §1

[10] = test system: corn (Zea mays); test: Test A postemergence; conditions: Zea mays, post-emergence, 240 h, Postemergence
Method in brief: as §1

[11] = test system: giant foxtail (Setaria faberii); test: Test A postemergence; conditions: Setaria faberi, post-emergence, 240 h, Postemergence
Method in brief: as §1

[12] = test system: pigweed (Amaranthus retroflexus); test: Test A postemergence; conditions: Amaranthus retroflexus, post-emergence, 240 h, Postemergence
Method in brief: as §1

[13] = test system: ragweed (common ragweed, Ambrosia elatior); test: Test A postemergence; conditions: Ambrosia artemisiifolia, post-emergence, 240 h, Postemergence
Method in brief: as §1

[14] = test system: ryegrass, Italian (Italian ryegrass, Lolium multiflorum); test: Test A postemergence; conditions: Lolium multiflorum, post-emergence, 240 h, Postemergence
Method in brief: as §1

[15] = test system: wheat (Triticum aestivum); test: Test A postemergence; conditions: Triticum aestivum, post-emergence, 240 h, Postemergence
Method in brief: as §1

CSc1ccccc1NC(=O)[C@H]1C(=O)N(C)C[C@@H]1c1ccc(F)c(C)c1 [Compound 1312]
pest or weed control at 500 g/ha ([1]; 500 g ai/ha, preemergence, 0 to 100 scale where 0 is no effect and 100 is complete control, read-out: Kochia plant response rating): 80% | pest or weed control at 125 g/ha ([1]; Preemergence, 125 g ai/ha, 0 to 100 scale (0 no effect, 100 complete control), read-out: Plant response rating, Kochia): 50% | pest or weed control at 500 g/ha ([2]; 500 g ai/ha, preemergence, 0 to 100 scale where 0 is no effect and 100 is complete control, read-out: Barnyardgrass plant response rating): 100% | pest or weed control at 125 g/ha ([2]; Preemergence, 125 g ai/ha, 0 to 100 scale (0 no effect, 100 complete control), read-out: Plant response rating, Barnyardgrass): 90% | pest or weed control at 500 g/ha ([3]; 500 g ai/ha, preemergence, 0 to 100 scale where 0 is no effect and 100 is complete control, read-out: Foxtail, Giant plant response rating): 100% | pest or weed control at 125 g/ha ([3]; Preemergence, 125 g ai/ha, 0 to 100 scale (0 no effect, 100 complete control), read-out: Plant response rating, Foxtail, Giant): 90% | pest or weed control at 500 g/ha ([4]; 500 g ai/ha, preemergence, 0 to 100 scale where 0 is no effect and 100 is complete control, read-out: Pigweed plant response rating): 60% | pest or weed control at 125 g/ha ([4]; Preemergence, 125 g ai/ha, 0 to 100 scale (0 no effect, 100 complete control), read-out: Plant response rating, Pigweed): 20% | pest or weed control at 500 g/ha ([5]; 500 g ai/ha, preemergence, 0 to 100 scale where 0 is no effect and 100 is complete control, read-out: Ragweed plant response rating): 100% | pest or weed control at 125 g/ha ([5]; Preemergence, 125 g ai/ha, 0 to 100 scale (0 no effect, 100 complete control), read-out: Plant response rating, Ragweed): 70% | pest or weed control at 125 g/ha [6]: 60% | pest or weed control at 125 g/ha ([7]; 125 g ai/ha, visual rating about 10 d after treatment, read-out: Galium plant response rating (0 to 100 scale)): 50% | pest or weed control at 500 g/ha ([7]; 500 g ai/ha, visual injury, 0 to 100 scale (0 no effect, 100 complete control), approx. 10 d, read-out: Plant response rating, Galium): 60% | pest or weed control at 125 g/ha ([8]; 125 g ai/ha, visual rating about 10 d after treatment, read-out: Kochia plant response rating (0 to 100 scale)): 50% | pest or weed control at 500 g/ha ([8]; 500 g ai/ha, visual injury, 0 to 100 scale (0 no effect, 100 complete control), approx. 10 d, read-out: Plant response rating, Kochia): 70% | pest or weed control at 125 g/ha ([9]; 125 g ai/ha, visual rating about 10 d after treatment, read-out: Blackgrass plant response rating (0 to 100 scale)): 50% | pest or weed control at 500 g/ha ([9]; 500 g ai/ha, visual injury, 0 to 100 scale (0 no effect, 100 complete control), approx. 10 d, read-out: Plant response rating, Blackgrass): 70% | plant injury at 125 g/ha ([10]; 125 g ai/ha, visual rating about 10 d after treatment, read-out: Corn plant response rating (0 to 100 scale)): 40% | Corn plant response rating (crop injury, 0 = no effect, 100 = complete kill) at 500 g/ha ([10]; 500 g ai/ha, visual injury, 0 to 100 scale (0 no effect, 100 complete control), approx. 10 d): 90% | pest or weed control at 125 g/ha ([11]; 125 g ai/ha, visual rating about 10 d after treatment, read-out: Foxtail, Giant plant response rating (0 to 100 scale)): 90% | pest or weed control at 500 g/ha ([11]; 500 g ai/ha, visual injury, 0 to 100 scale (0 no effect, 100 complete control), approx. 10 d, read-out: Plant response rating, Foxtail, Giant): 90% | pest or weed control at 125 g/ha ([12]; 125 g ai/ha, visual rating about 10 d after treatment, read-out: Pigweed plant response rating (0 to 100 scale)): 0% | pest or weed control at 500 g/ha ([12]; 500 g ai/ha, visual injury, 0 to 100 scale (0 no effect, 100 complete control), approx. 10 d, read-out: Plant response rating, Pigweed): 40% | pest or weed control at 125 g/ha ([13]; 125 g ai/ha, visual rating about 10 d after treatment, read-out: Ragweed plant response rating (0 to 100 scale)): 0% | pest or weed control at 500 g/ha ([13]; 500 g ai/ha, visual injury, 0 to 100 scale (0 no effect, 100 complete control), approx. 10 d, read-out: Plant response rating, Ragweed): 70% | pest or weed control at 125 g/ha ([14]; 125 g ai/ha, visual rating about 10 d after treatment, read-out: Ryegrass, Italian plant response rating (0 to 100 scale)): 30% | pest or weed control at 500 g/ha ([14]; 500 g ai/ha, visual injury, 0 to 100 scale (0 no effect, 100 complete control), approx. 10 d, read-out: Plant response rating, Ryegrass, Italian): 50% | plant injury at 125 g/ha ([15]; 125 g ai/ha, visual rating about 10 d after treatment, read-out: Wheat plant response rating (0 to 100 scale)): 30% | plant injury at 500 g/ha ([15]; 500 g ai/ha, visual injury, 0 to 100 scale (0 no effect, 100 complete control), approx. 10 d, read-out: Plant response rating, Wheat): 80%
